“And” between values parts separate entries of the source, which are not always exact repeats. Equal values may be shown once. Read-outs that look alike come from different tables or passages of the source. One block for each molecule: values may come before it.
Columns and labels:
[1] = biological target: T1, human MIF (Homo sapiens, UniProt P14174); assay: Competitive fluorescence polarization; assay type: binding; details: for Kd: 0.004 μM tracer B, […] MIF, pH 7.4, Kd from IC50 via eq 1
T1 sequence (P14174 2-115 limits assumed): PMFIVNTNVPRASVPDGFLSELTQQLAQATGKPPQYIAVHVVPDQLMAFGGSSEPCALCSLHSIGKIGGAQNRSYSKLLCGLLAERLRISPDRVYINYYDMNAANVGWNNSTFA

[2] = system: MIF; details: covalent inhibitor: result is time-dependent; cited from earlier work
[3] = biological target: T1, human MIF; assay: HPP tautomerase assay; assay type: biochemical; details: for Ki: tautomerase inhibition, HPP substrate, pH 6–6.1
[4] = system: MIF; details: cited from earlier work
[5] = biological target: MIF; details: DOPA assay; cited from earlier work
[6] = biological target: MIF binding to CD74; details: blocking binding of MIF to CD74; cited from earlier work

Compound: Ic1cc(-c2ccccc2)ncn1 [4-IPP]
- Kd [1]: 446 nM
- time dependence of FP results ([1]; FP monitored for 1 h after the 20 min incubation): time dependent
- IC50 [2]: 4500 nM

Compound: COc1ccc(Oc2cn(-c3ccc(O)c(F)c3)nn2)cc1 [5a]
- Ki [3]: 1900 nM

Compound: O=C(O)c1ccc(Oc2cn(-c3ccc(O)c(F)c3)nn2)cc1 [5b]
- Ki [3]: 1700 nM

Compound: O=c1c(-c2ccc(O)c(O)c2)coc2cc(O)ccc12 [Orita-13]
- Ki [5]: 38 nM

Compound: COc1cc(-c2ccc(N=Nc3ccc4c(S(=O)(=O)O)cc(S(=O)(=O)O)c(N)c4c3O)c(OC)c2)ccc1N=Nc1ccc2c(S(=O)(=O)O)cc(S(=O)(=O)O)c(N)c2c1O [PSB]
- IC50 [6]: 810 nM

The next lines start with results.

- Ki [3]: 569 nM
- fold weaker binding (cyclohexyl analogue vs NVS-2) [1]: ca. 10 fold
- Kd ([1]; Kd): 456 nM
Compound: O=C1Oc2cc(O)ccc2CN1C1CCCCC1 [NVS-1]

- Ki [3]: ~30 nM and 30 nM
- fold more potent than (R)-ISO-1 ([3]; from Ki values): roughly 1000 fold
- fold stronger binding than NVS-6 [1]: 3 fold
- ligand efficiency ([1]; (−2.3RT/HAC) log Kd): 0.50
Compound: COc1ccc(N2Cc3ccc(O)cc3OC2=O)cc1 [NVS-2]
- IC50 ([4]; HPP tautomerase assay): 20 nM
- IC50 ([4]; previously reported): 20 nM

- Ki [3]: 185 nM
- Kd ([1]; Kd): 159 nM
Compound: O=C1Oc2cc(O)ccc2CN1c1ccc(O)cc1 [NVS-6]

Source: paper PMC4945996 (Journal of the American Chemical Society, 2016)
